Data reported in PMC12526275, “hERG Channel Blockade and Antagonistic Interactions of Three Steroidal Alkaloids from Fritillaria Species” (Molecules, 2025).

Columns and labels:
Format in all cases: cell-based
[1] = biological target: T1, hERG channel (human Ether-a-go-go-Related Gene, Kv11.1) (Homo sapiens, UniProt Q12809); experiment: manual whole-cell patch clamp, hERG tail currents in stably expressing HEK293 cells
T1 construct: gene KCNH2

[2] = biological target: T2, hERG channel mutant S631A (Homo sapiens, UniProt Q12809, S631A); experiment: whole-cell patch clamp, transiently transfected HEK293 cells; inhibition at […]
T2 construct: gene KCNH2

[3] = biological target: T1, hERG channel (human Ether-a-go-go-Related Gene, Kv11.1); experiment: manual whole-cell patch clamp, hERG tail currents in stably expressing HEK293 cells; IC50 extrapolated (maximum tested […])

T1 sequence (Q12809 whole entry): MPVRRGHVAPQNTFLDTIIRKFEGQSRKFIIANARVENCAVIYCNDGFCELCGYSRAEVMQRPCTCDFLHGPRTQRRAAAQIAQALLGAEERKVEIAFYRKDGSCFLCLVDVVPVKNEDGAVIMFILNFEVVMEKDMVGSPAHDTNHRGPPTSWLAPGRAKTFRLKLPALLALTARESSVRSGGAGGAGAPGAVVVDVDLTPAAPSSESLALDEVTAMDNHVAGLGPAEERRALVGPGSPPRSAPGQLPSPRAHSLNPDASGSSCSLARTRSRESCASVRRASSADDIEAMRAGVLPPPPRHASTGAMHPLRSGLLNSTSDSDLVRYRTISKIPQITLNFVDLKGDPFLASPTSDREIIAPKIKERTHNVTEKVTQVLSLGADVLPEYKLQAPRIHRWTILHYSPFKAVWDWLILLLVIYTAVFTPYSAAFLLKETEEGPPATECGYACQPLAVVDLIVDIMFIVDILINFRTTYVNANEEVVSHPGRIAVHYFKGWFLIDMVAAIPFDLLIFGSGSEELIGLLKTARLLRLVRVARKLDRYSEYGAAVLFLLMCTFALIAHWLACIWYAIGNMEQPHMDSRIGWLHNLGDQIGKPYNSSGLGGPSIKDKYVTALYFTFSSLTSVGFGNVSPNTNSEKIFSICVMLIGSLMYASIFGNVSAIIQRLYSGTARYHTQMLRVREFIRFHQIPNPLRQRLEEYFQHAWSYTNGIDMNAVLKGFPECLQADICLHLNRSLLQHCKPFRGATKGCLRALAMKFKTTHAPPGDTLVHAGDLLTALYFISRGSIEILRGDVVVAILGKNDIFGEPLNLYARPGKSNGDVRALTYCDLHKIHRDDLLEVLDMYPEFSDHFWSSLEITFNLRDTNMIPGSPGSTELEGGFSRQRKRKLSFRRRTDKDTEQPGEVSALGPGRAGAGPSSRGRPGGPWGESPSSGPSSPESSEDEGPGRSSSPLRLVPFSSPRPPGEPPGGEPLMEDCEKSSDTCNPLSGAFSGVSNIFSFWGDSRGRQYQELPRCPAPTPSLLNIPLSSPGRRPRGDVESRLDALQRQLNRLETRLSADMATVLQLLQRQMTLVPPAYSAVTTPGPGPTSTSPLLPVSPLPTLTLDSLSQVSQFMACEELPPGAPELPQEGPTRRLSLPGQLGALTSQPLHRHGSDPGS
T2 sequence (Q12809 whole entry S631A): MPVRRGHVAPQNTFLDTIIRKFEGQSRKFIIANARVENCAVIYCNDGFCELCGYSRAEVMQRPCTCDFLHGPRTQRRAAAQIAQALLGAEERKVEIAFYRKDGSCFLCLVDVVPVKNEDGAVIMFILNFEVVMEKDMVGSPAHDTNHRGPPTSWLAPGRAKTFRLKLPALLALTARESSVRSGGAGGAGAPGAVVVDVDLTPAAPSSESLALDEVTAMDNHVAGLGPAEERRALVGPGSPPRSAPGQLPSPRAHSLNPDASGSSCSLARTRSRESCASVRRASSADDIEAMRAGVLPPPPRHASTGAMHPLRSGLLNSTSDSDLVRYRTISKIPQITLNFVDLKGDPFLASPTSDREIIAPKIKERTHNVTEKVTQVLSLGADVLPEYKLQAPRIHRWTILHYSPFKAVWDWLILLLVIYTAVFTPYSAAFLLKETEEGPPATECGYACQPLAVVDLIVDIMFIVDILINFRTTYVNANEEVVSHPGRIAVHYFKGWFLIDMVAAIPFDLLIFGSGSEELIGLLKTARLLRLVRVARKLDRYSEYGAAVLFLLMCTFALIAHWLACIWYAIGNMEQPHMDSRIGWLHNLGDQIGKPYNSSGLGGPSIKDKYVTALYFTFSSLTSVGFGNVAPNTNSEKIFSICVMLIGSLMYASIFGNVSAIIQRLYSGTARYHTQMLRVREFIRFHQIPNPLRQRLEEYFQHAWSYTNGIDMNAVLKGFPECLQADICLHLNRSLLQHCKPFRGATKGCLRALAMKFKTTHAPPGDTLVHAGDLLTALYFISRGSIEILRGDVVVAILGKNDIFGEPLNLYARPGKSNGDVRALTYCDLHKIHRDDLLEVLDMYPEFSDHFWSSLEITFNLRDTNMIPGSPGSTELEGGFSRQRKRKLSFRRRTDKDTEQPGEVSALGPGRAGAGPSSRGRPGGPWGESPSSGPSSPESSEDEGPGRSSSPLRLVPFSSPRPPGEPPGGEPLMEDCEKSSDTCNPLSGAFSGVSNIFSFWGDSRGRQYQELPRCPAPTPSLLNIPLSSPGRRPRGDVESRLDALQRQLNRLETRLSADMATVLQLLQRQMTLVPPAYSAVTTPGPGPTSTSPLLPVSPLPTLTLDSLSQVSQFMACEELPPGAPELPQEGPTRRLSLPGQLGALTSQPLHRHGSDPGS

Compound	IC50 [1]	inhibition at 100 µM [2]	IC50 [3]
C[C@H]1CC[C@@H]2N(C1)C[C@H]1[C@@H]3C[C@H]4[C@@H](CC(=O)[C@H]5C[C@@H](O)CC[C@@]54C)[C@@H]3CC[C@@H]1[C@]2(C)O [peiminine]	36.8 ± 2.5 µM	12.3 ± 1.4%	
C[C@H]1CC[C@@H]2N(C1)C[C@H]1[C@@H]3C[C@H]4[C@@H](CC(=O)[C@H]5C[C@@H](O)CC[C@@]54C)[C@@H]3CC[C@H]1[C@]2(C)O [sipeimine]			~47.6 µM
C[C@H]1CC[C@@H]2N(C1)C[C@H]1[C@@H]3C[C@H]4[C@@H](C[C@H](O)[C@H]5C[C@@H](O)CC[C@@]54C)[C@@H]3CC[C@@H]1[C@]2(C)O [peimine]	26.1 ± 3.5 µM		
